Molecules are shown by their SMILES.

14 compounds from patent publication US20230365541A1, “INHIBITOR OF ENHANCER OF ZESTE HOMOLOGUE 2, AND USE THEREOF” (HAISCO PHARMACEUTICALS PTE. LTD., priority 2020, published 2023) can be followed below.

In one experiment the target is EZH2 (Homo sapiens (Human), UniProt Q15910). As to the kind of experiment: Test method for EZH2 enzyme activity. In kind it is biochemical. The conditions noted are these: H3K27(21-44) and [3H]-SAM. The method in brief:
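EZH2 (3 nM final) preincubated 15 min with compound in Tris-HCl pH 9.0 buffer, then H3K27(21-44) peptide and [3H]-SAM added (mixture at 200 nM and 100 nM) for 60 min at room temperature. Reaction quenched with cold SAM; flashplate scintillation read, inhibition normalized to controls and IC50 fitted.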

The next experiment deals with SU-DHL-6 cells. As to the kind of experiment: SU-DHL-6 cell proliferation test. To be noted: incubated for 14 days. In kind it is cell-based, human. How it is done: SU-DHL-6 cells are human B-cell lymphoma cell lines purchased from ATCC and cultured under the following conditions: RPMI-1640+10% FBS+1% double antibody in a 37° C., 5% CO2 incubator. The cells were plated in a 12-well plate, with a cell concentration of 1×10^5 cells/mL. After the cells were plated, the compounds at different concentrations were added and cultured in a 37° C., 5% CO2 incubator. The cells were counted every 3-4 days (Countstar automated cell counter), centrifuged to remove the supernatant, re-diluted to 1×10^5 cells/mL and plated, and then the compounds at different concentrations were further added. After the mixture was incubated for 14 days and the cells were counted, the test was terminated, and the IC50 values were calculated by using the Origen9.2 software.

Sequence of EZH2 (Q15910 other isoform, or with tags, fused parts or gaps isoform Q15910-2): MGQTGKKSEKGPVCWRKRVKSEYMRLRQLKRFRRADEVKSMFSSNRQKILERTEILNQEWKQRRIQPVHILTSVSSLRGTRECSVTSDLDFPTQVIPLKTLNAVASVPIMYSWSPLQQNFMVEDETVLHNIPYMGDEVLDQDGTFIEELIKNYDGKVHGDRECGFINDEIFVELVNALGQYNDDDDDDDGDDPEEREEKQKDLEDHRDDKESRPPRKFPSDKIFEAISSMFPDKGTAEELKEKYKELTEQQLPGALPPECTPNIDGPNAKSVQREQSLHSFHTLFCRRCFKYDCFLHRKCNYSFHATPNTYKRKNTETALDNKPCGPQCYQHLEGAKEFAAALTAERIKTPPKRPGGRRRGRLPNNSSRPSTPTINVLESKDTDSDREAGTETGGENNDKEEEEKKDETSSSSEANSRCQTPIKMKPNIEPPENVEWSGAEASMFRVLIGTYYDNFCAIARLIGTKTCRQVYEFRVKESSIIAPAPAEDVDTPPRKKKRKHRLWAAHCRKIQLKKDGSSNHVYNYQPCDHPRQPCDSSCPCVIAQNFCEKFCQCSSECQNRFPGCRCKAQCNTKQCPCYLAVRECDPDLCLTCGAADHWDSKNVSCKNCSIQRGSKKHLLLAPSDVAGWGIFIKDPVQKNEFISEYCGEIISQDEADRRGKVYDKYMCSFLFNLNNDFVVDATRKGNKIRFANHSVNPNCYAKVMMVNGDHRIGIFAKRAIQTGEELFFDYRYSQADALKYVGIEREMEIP
Sequence of EZH2 (O75530 2-441 partner): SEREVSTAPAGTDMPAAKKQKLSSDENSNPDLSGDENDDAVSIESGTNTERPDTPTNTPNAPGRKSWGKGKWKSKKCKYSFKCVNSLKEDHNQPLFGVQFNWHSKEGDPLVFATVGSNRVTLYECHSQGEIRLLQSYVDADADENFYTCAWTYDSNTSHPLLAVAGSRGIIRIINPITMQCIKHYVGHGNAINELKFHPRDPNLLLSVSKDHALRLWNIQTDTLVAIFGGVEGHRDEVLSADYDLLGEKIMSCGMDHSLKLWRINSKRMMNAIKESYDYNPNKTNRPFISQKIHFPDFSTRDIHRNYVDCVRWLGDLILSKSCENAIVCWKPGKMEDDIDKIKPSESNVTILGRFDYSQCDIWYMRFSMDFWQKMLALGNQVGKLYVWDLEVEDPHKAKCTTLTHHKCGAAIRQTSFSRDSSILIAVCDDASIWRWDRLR
Sequence of EZH2 (Q15022 2-739 partner): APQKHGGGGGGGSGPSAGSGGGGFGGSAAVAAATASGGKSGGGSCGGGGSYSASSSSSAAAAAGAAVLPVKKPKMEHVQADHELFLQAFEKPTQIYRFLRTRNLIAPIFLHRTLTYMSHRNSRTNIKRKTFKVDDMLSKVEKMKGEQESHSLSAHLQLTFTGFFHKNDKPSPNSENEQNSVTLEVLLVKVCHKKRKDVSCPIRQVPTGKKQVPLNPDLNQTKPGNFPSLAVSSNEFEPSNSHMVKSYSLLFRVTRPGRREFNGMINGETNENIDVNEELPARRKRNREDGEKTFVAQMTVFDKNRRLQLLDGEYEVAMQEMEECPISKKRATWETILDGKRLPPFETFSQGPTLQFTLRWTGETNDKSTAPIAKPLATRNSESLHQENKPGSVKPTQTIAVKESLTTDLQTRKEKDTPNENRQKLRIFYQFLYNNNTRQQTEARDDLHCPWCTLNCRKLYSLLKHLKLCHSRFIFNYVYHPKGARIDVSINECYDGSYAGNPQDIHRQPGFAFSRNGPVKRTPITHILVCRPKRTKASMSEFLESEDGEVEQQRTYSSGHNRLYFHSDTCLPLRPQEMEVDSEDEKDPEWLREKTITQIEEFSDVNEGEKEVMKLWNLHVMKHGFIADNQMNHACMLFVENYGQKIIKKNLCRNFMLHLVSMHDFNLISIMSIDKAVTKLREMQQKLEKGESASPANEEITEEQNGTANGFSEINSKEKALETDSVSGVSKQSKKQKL
Sequence of EZH2 (Q09028 2-425 partner): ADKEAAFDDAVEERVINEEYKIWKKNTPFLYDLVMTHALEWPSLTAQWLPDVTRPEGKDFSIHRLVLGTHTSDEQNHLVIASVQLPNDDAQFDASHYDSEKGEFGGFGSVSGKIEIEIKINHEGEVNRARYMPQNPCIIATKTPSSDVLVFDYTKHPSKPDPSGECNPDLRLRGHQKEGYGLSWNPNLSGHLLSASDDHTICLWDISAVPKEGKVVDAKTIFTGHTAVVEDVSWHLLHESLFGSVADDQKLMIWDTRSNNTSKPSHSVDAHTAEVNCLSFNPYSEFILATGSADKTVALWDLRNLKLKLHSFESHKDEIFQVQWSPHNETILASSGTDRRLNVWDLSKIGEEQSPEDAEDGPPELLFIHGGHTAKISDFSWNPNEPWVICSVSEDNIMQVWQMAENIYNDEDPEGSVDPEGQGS
Sequence of EZH2 (Q6ZN18 whole entry partner): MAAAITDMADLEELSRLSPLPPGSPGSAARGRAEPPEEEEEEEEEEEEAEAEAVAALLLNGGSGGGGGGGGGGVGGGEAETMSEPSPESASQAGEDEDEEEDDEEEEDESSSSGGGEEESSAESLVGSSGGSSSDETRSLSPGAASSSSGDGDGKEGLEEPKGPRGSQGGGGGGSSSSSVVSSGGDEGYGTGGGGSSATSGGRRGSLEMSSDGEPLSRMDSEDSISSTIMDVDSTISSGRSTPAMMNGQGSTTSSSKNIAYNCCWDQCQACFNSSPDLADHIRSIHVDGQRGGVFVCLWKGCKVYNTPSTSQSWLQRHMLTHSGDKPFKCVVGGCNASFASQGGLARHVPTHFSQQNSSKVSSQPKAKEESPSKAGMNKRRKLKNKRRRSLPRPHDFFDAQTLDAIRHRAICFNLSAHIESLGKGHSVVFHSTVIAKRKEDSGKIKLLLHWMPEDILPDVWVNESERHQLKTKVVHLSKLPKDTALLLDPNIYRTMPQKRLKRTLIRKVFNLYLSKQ

Regarding `CSc1cc(C)[nH]c(=O)c1CNC(=O)c1cc(Cl)c2c(c1C)OC(C)([C@H]1CC[C@H](N[C@H]3C[C@@H](F)C3)CC1)O2` (single isomer, unassigned) [Compound 41, isomer 1, 7-chloro-2-(4-((cis-3-fluorocyclobutyl)amino)cyclohexyl)-2,4-dimethyl-N-((6-methyl-4-(methylthio)-2-oxo-1,2-dihydropyridin-3-yl)methyl)benzo[d][1,3]dioxole-5-carboxamide], the IC50 on EZH2 came to 0.52 nM; in the experiment with SU-DHL-6 cells (Homo sapiens, SU-DHL-6, 336 h), 35.3 nM.

For the compound `CSc1cc(C)[nH]c(=O)c1CNC(=O)c1cc(Cl)c2c(c1C)OC(C)([C@H]1CC[C@H](N[C@H]3C[C@@H](F)C3)CC1)O2` (single isomer, unassigned) [Compound 41, isomer 2, 7-chloro-2-(4-((cis-3-fluorocyclobutyl)amino)cyclohexyl)-2,4-dimethyl-N-((6-methyl-4-(methylthio)-2-oxo-1,2-dihydropyridin-3-yl)methyl)benzo[d][1,3]dioxole-5-carboxamide], the IC50 is 0.44 nM at EZH2 and 22 nM in the experiment on SU-DHL-6 cells.

For `CSc1cc(C)[nH]c(=O)c1CNC(=O)c1cc(Cl)c2c(c1C)OC(C)([C@H]1CC[C@@H](N3CC(N4CCCC4)C3)CC1)O2` (single isomer, unassigned) [Compound 43, isomer 1, 7-chloro-2,4-dimethyl-N-((6-methyl-4-(methylthio)-2-oxo-1,2-dihydropyridin-3-yl)methyl)-2-(4-(3-(pyrrolidin-1-yl)azetidin-1-yl)cyclohexyl)benzo[d][1,3]dioxole-5-carboxamide], the IC50 at EZH2 worked out at 0.49 nM; in the experiment on SU-DHL-6 cells (Homo sapiens, 336 h) it was 59.3 nM.

As to `CSc1cc(C)[nH]c(=O)c1CNC(=O)c1cc(Cl)c2c(c1C)OC(C)([C@H]1CC[C@@H](N3CC[Si](C)(C)CC3)CC1)O2` (single isomer, unassigned) [Compound 49, isomer 2, 7-chloro-2-(4-(4,4-dimethyl-1,4-azasilinan-1-yl)cyclohexyl)-2,4-dimethyl-N-((6-methyl-4-(methylthio)-2-oxo-1,2-dihydropyridin-3-yl)methyl)benzo[d][1,3]dioxole-5-carboxamide], the IC50 against EZH2 stood at 0.32 nM; with SU-DHL-6 cells (Homo sapiens, SU-DHL-6, 336 h), 38.9 nM.

Regarding `[2H]C([2H])(NC(=O)c1cc(Cl)c2c(c1C)OC(C)(C1CCC(NC3COC3)CC1)O2)c1c(SC)cc(C)[nH]c1=O` (single isomer, unassigned) [Compound 59, isomer 1, 7-chloro-2,4-dimethyl-N-((6-methyl-4-(methylthio)-2-oxo-1,2-dihydropyridin-3-yl)methyl-d2)-2-(4-(oxetan-3-ylamino)cyclohexyl)benzo[d][1,3]dioxole-5-carboxamide], the IC50 was 0.57 nM on EZH2 and 10 nM in the experiment on SU-DHL-6 cells (Homo sapiens, SU-DHL-6, 336 h).

`[2H]C([2H])(NC(=O)c1cc(Cl)c2c(c1C)OC(C)([C@H]1CC[C@@H](N3CC4COCC4C3)CC1)O2)c1c(SC)cc(C)[nH]c1=O` (single isomer, unassigned) [Compound 60, isomer 1, 7-chloro-2,4-dimethyl-N-((6-methyl-4-(methylthio)-2-oxo-1,2-dihydropyridin-3-yl)methyl-d2)-2-(4-(tetrahydro-1H-furo[3,4-c]pyrrol-5(3H)-yl)cyclohexyl)benzo[d][1,3]dioxole-5-carboxamide]: the IC50 against EZH2 is 0.18 nM; in the experiment on SU-DHL-6 cells, 58.6 nM.

Consider `[2H]C([2H])(NC(=O)c1cc(Cl)c2c(c1C)OC(C)([C@H]1CC[C@@H](N3CC4COCC4C3)CC1)O2)c1c(SC)cc(C)[nH]c1=O` (single isomer, unassigned) [Compound 60, isomer 2, 7-chloro-2,4-dimethyl-N-((6-methyl-4-(methylthio)-2-oxo-1,2-dihydropyridin-3-yl)methyl-d2)-2-(4-(tetrahydro-1H-furo[3,4-c]pyrrol-5(3H)-yl)cyclohexyl)benzo[d][1,3]dioxole-5-carboxamide], for which the results for the IC50 at EZH2 and with SU-DHL-6 cells were 0.34 nM and 7.12 nM, respectively.

Turning to `CSc1cc(C)[nH]c(=O)c1CNC(=O)c1cc(Cl)c2c(c1C)OC(C)([C@H]1CC[C@H](C(=O)N3CC(F)(F)C3)CC1)O2` (single isomer, unassigned; isomer 1) [Compound 47, isomer 1, 7-chloro-2-(4-(3,3-difluoroazetidine-1-carbonyl)cyclohexyl)-2,4-dimethyl-N-(di-deuterated(6-methyl-4-(methylthio)-2-oxo-1,2-dihydropyridin-3-yl)di-deuterated-methyl)benzo[d][1,3]dioxole-5-carboxamide], the values for the IC50 against EZH2 and with SU-DHL-6 cells were 0.34 nM and 26.3 nM, respectively.

As to `CNS(=O)(=O)N1CCC(C2(C)Oc3c(Cl)cc(C(=O)NCc4c(SC)cc(C)[nH]c4=O)c(C)c3O2)CC1` (stereo not shown) [Compound 26, 7-chloro-2,4-dimethyl-N-((6-methyl-4-(methylthio)-2-oxo-1,2-dihydropyridin-3-yl)methyl)-2-(1-(N-methylsulfamoyl)piperidin-4-yl)benzo[d][1,3]dioxole-5-carboxamide], the IC50 against EZH2 is 0.52 nM; in the experiment with SU-DHL-6 cells (Homo sapiens, SU-DHL-6, 336 h), 63.2 nM.

On to `COC(=O)N1CCC(C2(C)Oc3c(Cl)cc(C(=O)NCc4c(SC)cc(C)[nH]c4=O)c(C)c3O2)CC1` (stereo not shown) [Compound 29, methyl-4-(7-chloro-2,4-dimethyl-5-(((6-methyl-4-(methylthio)-2-oxo-1,2-dihydropyridin-3-yl)methyl)carbamoyl)benzo[d][1,3]dioxol-2-yl)piperidine-1-carboxylate], for which the IC50 against EZH2 worked out at 0.44 nM; in the experiment on SU-DHL-6 cells (Homo sapiens, SU-DHL-6, 336 h), 77.9 nM.

In the case of `CSc1cc(C)[nH]c(=O)c1CNC(=O)c1cc(Cl)c2c(c1C)OC(C)(C1CCN(CC3(C#N)CC3)CC1)O2` (stereo not shown) [Compound 30, 7-chloro-2-(1-((1-cyanocyclopropyl)methyl)piperidin-4-yl)-2,4-dimethyl-N-((6-methyl-4-(methylthio)-2-oxo-1,2-dihydropyridin-3-yl)methyl)benzo[d][1,3]dioxole-5-carboxamide], the IC50 against EZH2 stood at 0.66 nM; with SU-DHL-6 cells (Homo sapiens, SU-DHL-6, 336 h) it was 22.6 nM.

As to `CSc1cc(C)[nH]c(=O)c1CNC(=O)c1cc(Cl)c2c(c1C)OC(C)(C1CCN(CC3CC3(F)F)CC1)O2` (stereo not shown) [Compound 31, 7-chloro-2-(1-((2,2-difluorocyclopropyl)methyl)piperidin-4-yl)-2,4-dimethyl-N-((6-methyl-4-(methylthio)-2-oxo-1,2-dihydropyridin-3-yl)methyl)benzo[d][1,3]dioxole-5-carboxamide], the IC50 against EZH2 was determined as 0.52 nM; with SU-DHL-6 cells (Homo sapiens, SU-DHL-6, 336 h), 68 nM.

Turning to `CSc1cc(C)[nH]c(=O)c1CNC(=O)c1cc(Cl)c2c(c1C)OC(C)(C1CCN(CC3CCC3)CC1)O2` (stereo not shown) [Compound 37, 7-chloro-2-(1-(cyclobutylmethyl)piperidin-4-yl)-2,4-dimethyl-N-((6-methyl-4-(methylthio)-2-oxo-1,2-dihydropyridin-3-yl)methyl)benzo[d][1,3]dioxole-5-carboxamide], the IC50 at EZH2 amounted to 0.44 nM; with SU-DHL-6 cells (Homo sapiens, SU-DHL-6, 336 h), 32.1 nM.

As for `CSc1cc(C)[nH]c(=O)c1CNC(=O)c1cc(Cl)c2c(c1C)OC(C)(C1CCN(CC3COC3)CC1)O2` (stereo not shown) [Compound 38, 7-chloro-2,4-dimethyl-N-((6-methyl-4-(methylthio)-2-oxo-1,2-dihydropyridin-3-yl)methyl)-2-(1-(oxetan-3-ylmethyl)piperidin-4-yl)benzo[d][1,3]dioxole-5-carboxamide], the concentration for half-maximal inhibition (IC50) against EZH2 was determined as 0.7 nM; in the experiment on SU-DHL-6 cells (Homo sapiens, SU-DHL-6, 336 h), 14.1 nM.

One may read the IC50 as the midpoint of a concentration-inhibition curve. Low readings indicate greater potency in that assay, high ones weaker potency in that assay.
